Reference: patent publication US9687459B2, “Aminocyclobutane derivatives, method for preparing same and the use thereof as drugs” (priority 2012, dated 2017)
Several values for one entry are separate records, joined by “and”; a condition that tells them apart may be missing. Equal entries are not always repeated. Where two headings read alike, the source gives them in different places.

Tests used:
[1] = target: T1, recombinant human NMDA receptors constructed from NR1 and NR2B sub-units (Homo sapiens, UniProt Q05586+Q13224); experiment: Inhibition of NMDA current in Xenopus ovocytes, two electrode voltage clamp; type: cell-based
T1 construct: expressed in transfected cells; host or cells: Xenopus laevis oocytes injected with cRNA transcribed from pGEMHE constructs
Source text: We examined the effects of the compounds of the invention on inhibition of the NMDA current in Xenope (Xenopus laevis) expressing recombinant human NMDA receptors constructed from NR1 and NR2B sub-units. The currents produced by stimulation of these receptors by means of endogenous agonists were studied according to the two electrode voltage clamp technique reported by Planells-Cases et al., 2002, J. Pharmacol. Exp. Ther., 302, 163-173.
Protocol: ovocytes were surgically removed from adults xenopes, enzymatically defolliculated and stored at 17° C. in a solution containing: 96 mM of NaCl, 2 mM of KCl, 1 mM of MgCl2, 1.8 mM of CaCl2 and 5 mM of HEPES at pH 7.5 (NaOH) and 50 mg/L of gentamycin (Heusler et al., 2005, Neuropharmacology, 49, 963-976). Complementary DNA (cDNA) coding for the NR1 sub-unit was cloned by PCR using primers targeted for start and end codons in the published sequence (Genebank access number M_007327). cDNA coding for the NR2B sub-unit was synthesised by Eurogentec (Seraing, Belgium) according to the published sequence (gene bank access number NM_000834). The NR1 and NR2B cDNA was then sub-cloned in the pGEMHE high expression carrier for in vitro transcription of cDNA. cRNA coding for NR1 and NR2B was prepared according to the method described by Heusler et al. (already cited). Aliquots of the cRNA solution were injected into the ovocytes ([…] for NR1 and 40-1000 pg/ovocyte for NR2B). Each ovocyte was injected with 100 nL of a solution containing: 4 mM of Na^+BAPTA (pH 7.2) in order to block all residual chlorine currents. After stabilisation, NMDA currents were activated by superfusion of glutamate and glycine each at a concentration of 10 μM. The compounds to be tested were then superfused in a Ringer Ba^++ solution at increasing concentrations in the presence of glutamate and glycine (4 to 5 concentrations were tested per ovocyte). The concentration-response codes obtained are analysed for each ovocyte by non-linear regression and a pIC50 value was calculated. pIC50 designates the negative logarithm of the compound concentration tested needed to reduce the amplitude of the NMDA current by half.

[2] = system: pre-pulse inhibition of the jolt reflex in the rat; experiment: Pre-pulse inhibition test for the jolt reflex (PPI); type: in vivo; settings: FIG. 1
Source text: We have already highlighted the importance of normalising the NMDA receptor function, in other words blocking its excessive activity without interfering, or interfering as little as possible, with its normal physiological functioning. As a marker of the interaction between the products of the invention and the normal functioning of the NMDA receptors, we chose the pre-pulse inhibition test for the jolt reflex (PPI). This test represents a measurement of the organism's capacity to filter non-essential information. Non-competitive and competitive antagonists as well as channel blockers reduce PPI in the rat (Depoortere et al., 1999, Behav. Pharmacol., 10, 51-62), such a reduction being considered to be predictive of the psychotomimetic effects of NMDA antagonists in humans.
Protocol: Male rats (Sprague-Dawley Iffa Credo, Les Oncins, France) were placed in 18.4 cm by 8.8 cm diameter cylinders resting on a base below which a piezoelectric accelerometer is fixed to act as a detector of the jolt reaction. This is enclosed in a box with a loudspeaker attached to the ceiling to deliver sound pulses and pre-pulses, and is acoustically isolated (SR LAB, San Diego Instruments, San Diego, USA). All the events are controlled by means of software. […] Three types of sound stimuli (white noise) are delivered; 1) a pulse of 118 dB (P, duration 40 msec); 2) a pre-pulse of 78 dB (duration 20 msec) followed by a pulse of 118 dB (pP); and 3) no pre-pulse or pulse (NP). The interval between the beginning of the pre-pulse and the beginning of the pulse is 100 msec, with background noise at 70 dB. The jolt reaction is recorded for 100 ms, 100 ms after the beginning of the stimulus (pP or NP) by a numerical/analogue acquisition card (12 bits). The session starts with a stimulus-free period of 5 min after which animals are exposed to 10 P (separated on average by 15 s and intended to stabilise the jolt reaction). The reactions recorded with these 10 P are not used for the calculation. After this, 10 P, 10 pP and 3 NP are delivered in a semi-random order with an average interval of 15 s in between. At the end of this pre-test, rats undergo an ip injection of the compounds to be tested or physiological serum as a control and are returned to their cages. The actual test session (similar on every point to the pre-test) is carried out 60 minutes later. The percentage inhibition of the pre-pulse is calculated using data from this test session according to the formula: (median amplitude P−median amplitude pP)×100/(median amplitude P).

[3] = system: acute inflammatory pain model in the rat; settings: for Paw licking % reduction at 40 mg/kg / Paw licking inhibition at 40 mg/kg (in words): 40 mg/kg ip, late phase; for Paw licking MSD (minimum significant dose): ip 15 min before formaldehyde, late phase 22.5-27.5 min
[4] = system: forced swimming model in the rat; experiment: Forced swimming test, immobility time; type: in vivo; settings: for Immobility time % reduction at 20 mg/kg: 20 mg/kg ip; for ED50: ip 30 min before test, dose reducing immobility time by half relative to controls
Description: This height allows the rats to swim or to float without their paws touching the base of the cylinder. 24 hours before the test day, the rats are placed in the cylinder for 15 min, after which time they no longer attempt to escape and remain immobile at the surface. On the test day, the compound to be tested or the carrier is injected (ip) into the animal which is placed in the cylinder 30 min later. The duration of immobility (defined when the rat simply floats and only makes small movements to stay at the surface) is measured with an accuracy of 0.1 s for 5 minutes.

[5] = ovocytes expressing human NR1/NR2B, glutamate and glycine each 10 μM, read-out: Inhibition of NMDA current pIC50 (converted)

T1 sequence (Q13224 27-1484, other chains not shown): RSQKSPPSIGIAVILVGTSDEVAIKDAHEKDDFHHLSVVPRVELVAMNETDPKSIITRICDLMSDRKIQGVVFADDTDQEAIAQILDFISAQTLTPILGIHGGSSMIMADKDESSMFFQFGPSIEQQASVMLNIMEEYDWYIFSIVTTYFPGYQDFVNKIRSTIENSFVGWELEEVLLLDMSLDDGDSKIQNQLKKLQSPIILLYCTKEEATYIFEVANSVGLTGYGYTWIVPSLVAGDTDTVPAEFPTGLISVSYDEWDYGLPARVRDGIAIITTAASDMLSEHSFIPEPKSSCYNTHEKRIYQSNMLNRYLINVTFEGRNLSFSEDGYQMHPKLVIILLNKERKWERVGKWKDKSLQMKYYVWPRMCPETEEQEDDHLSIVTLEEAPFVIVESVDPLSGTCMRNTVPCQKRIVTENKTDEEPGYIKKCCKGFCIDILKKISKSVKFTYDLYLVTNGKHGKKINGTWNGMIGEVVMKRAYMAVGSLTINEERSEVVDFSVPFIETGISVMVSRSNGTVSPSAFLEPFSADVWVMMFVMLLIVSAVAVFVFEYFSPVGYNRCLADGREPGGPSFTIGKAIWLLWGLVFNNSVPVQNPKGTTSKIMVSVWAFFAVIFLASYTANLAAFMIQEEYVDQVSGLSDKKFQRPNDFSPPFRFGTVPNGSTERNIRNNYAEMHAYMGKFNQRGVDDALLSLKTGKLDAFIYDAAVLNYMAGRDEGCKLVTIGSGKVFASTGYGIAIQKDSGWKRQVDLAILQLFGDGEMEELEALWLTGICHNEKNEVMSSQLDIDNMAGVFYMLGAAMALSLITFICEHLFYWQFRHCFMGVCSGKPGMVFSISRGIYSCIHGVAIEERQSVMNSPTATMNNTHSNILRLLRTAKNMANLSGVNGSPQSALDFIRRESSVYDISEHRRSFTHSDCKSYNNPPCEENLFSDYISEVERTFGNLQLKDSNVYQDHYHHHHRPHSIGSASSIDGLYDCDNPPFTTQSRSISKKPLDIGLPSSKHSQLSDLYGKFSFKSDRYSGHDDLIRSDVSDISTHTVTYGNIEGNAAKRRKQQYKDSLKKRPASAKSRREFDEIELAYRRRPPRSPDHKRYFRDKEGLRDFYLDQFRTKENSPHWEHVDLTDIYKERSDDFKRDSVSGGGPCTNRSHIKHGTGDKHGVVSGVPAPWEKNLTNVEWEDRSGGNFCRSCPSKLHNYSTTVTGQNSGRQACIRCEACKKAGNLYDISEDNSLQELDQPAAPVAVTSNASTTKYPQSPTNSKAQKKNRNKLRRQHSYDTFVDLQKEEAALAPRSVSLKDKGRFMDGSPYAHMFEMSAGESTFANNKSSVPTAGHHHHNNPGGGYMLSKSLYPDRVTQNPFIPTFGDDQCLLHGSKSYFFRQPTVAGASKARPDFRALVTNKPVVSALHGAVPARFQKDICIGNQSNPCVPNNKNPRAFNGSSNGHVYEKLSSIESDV

Compound: CCN(CC)C(=O)[C@]1(c2ccccc2)C[C@@H](N)C1 [Compound 1a1, trans-3-amino-N,N-diethyl-1-phenylcyclobutanecarboxamide]
- IC50 [1, 5]: 501 nM
- Reduction in PPI at 20 mg/kg ([2]; 20 mg/kg ip, test 60 min after injection): 30%
- PPI reduction at 40 mg/kg (in words) ([2]; 40 mg/kg): modest
- Dose from which PPI is disrupted ([2]; ip): ≥ 20 mg/kg
- Paw licking % reduction at 40 mg/kg [3]: 100%
- Paw licking inhibition at 40 mg/kg (in words) [3]: completely inhibited
- Paw licking MSD (minimum significant dose) [3]: 10 mg/kg

Compound: CCN(CC)C(=O)[C@]1(c2ccccc2F)C[C@@H](N)C1 [Compound 1b, trans-3-amino-N,N-diethyl-1-(2-fluorophenyl)-cyclobutanecarboxamide]
- IC50 [1, 5]: 501 nM

Compound: CCN(CC)C(=O)[C@]1(c2cccc(F)c2)C[C@@H](N)C1 [Compound 1c, trans-3-amino-N,N-diethyl-1-(3-fluorophenyl)-cyclobutanecarboxamide]
- IC50 [1, 5]: 158 nM
- Immobility time % reduction at 20 mg/kg [4]: 83%
- ED50 [4]: 13 mg/kg

Compound: CCN(CC)C(=O)[C@]1(c2cccc(OC)c2)C[C@@H](N)C1 [Compound 1d, trans-3-amino-N,N-diethyl-1-(3-methoxyphenyl)-cyclobutanecarboxamide]
- IC50 [1, 5]: 398 nM

Compound: CCN(CC)C(=O)[C@]1(c2cccc(Cl)c2)C[C@@H](N)C1 [Compound 1e, trans-3-amino-N,N-diethyl-1-(3-chlorophenyl)-cyclobutanecarboxamide]
- IC50 [1]: 79.4 nM
- Immobility time % reduction at 20 mg/kg [4]: 77%
- ED50 [4]: 15 mg/kg
- Paw licking % reduction at 40 mg/kg [3]: 100%
- Paw licking inhibition at 40 mg/kg (in words) [3]: completely inhibited
- Paw licking MSD (minimum significant dose) [3]: 10 mg/kg

Compound: CNC1(c2ccccc2Cl)CCCCC1=O (stereo not drawn) [ketamine, reference compound]
- IC50 [1]: 794 nM
- Immobility time % reduction at 20 mg/kg [4]: 50%
- ED50 [4]: 20 mg/kg
- Effect on PPI at 20 mg/kg (in words) ([2]; 20 mg/kg ip): total disappearance of PPI
- Paw licking % reduction at 40 mg/kg ([3]; 40 mg/kg): 74% and 75%
- Paw licking MSD (minimum significant dose) [3]: 40 mg/kg
